Assay results as given in ChEMBL document CHEMBL1649272, “Unbound cephalothin pharmacokinetics in adult burn patients are related to the elapsed time after injury” (Antimicrob Agents Chemother, 2009).

How the values were obtained:
[1] = Plasma protein binding in patient with severe burns at 1 g, iv; format: ADME, cell-free; details: human, read-out: PPB (converted)
[2] = Terminal half life in healthy human at 1 g, iv; format: ADME, organism-based; details: in vivo, read-out: beta t1/2 (converted)
[3] = system: Homo sapiens; test: Clearance in patient with severe burns at 1 g, iv; details: in vivo
[4] = Terminal half life in patient with severe burns at 1 g, iv; format: ADME, organism-based; details: human, in vivo, read-out: beta t1/2 (converted)
[5] = Half life in healthy human at 1 g, iv; format: ADME, organism-based; details: in vivo
[6] = Mean residence time in patient with severe burns at 1 g, iv; format: ADME, organism-based; details: human, in vivo
[7] = Plasma protein binding in healthy human at 1 g, iv; format: ADME, cell-free; details: read-out: PPB (converted)
[8] = Volume of distribution at steady state in healthy human at 1 g, iv; format: ADME, organism-based; details: in vivo, read-out: Vdss
[9] = Renal clearance in healthy human at 1 g, iv; format: ADME, organism-based, Kidney; details: in vivo, read-out: CL_renal
[10] = Cmax in healthy human at 1 g, iv; format: ADME, organism-based; design: dose 1 g, route intravenous; details: in vivo
[11] = system: Homo sapiens; test: AUC (0 to infinity) in patient with severe burns at 1 g, iv; format: ADME, organism-based, Plasma; design: dose 1 g, time infinity, route intravenous; details: in vivo
[12] = system: Homo sapiens; test: AUC (0 to infinity) in healthy human at 1 g, iv; format: ADME, organism-based, Plasma; design: dose 1 g, time infinity, route intravenous; details: in vivo
[13] = Volume of distribution at steady state in patient with severe burns at 1 g, iv; format: ADME, organism-based; details: human, in vivo, read-out: Vdss
[14] = Renal clearance in patient with severe burns at 1 g, iv; format: ADME, organism-based, Kidney; details: human, in vivo, read-out: CL_renal
[15] = Cmax in patient with severe burns at 1 g, iv; format: ADME, organism-based; design: dose 1 g, route intravenous; details: human, in vivo
[16] = system: Homo sapiens; test: Clearance in healthy human at 1 g, iv; details: in vivo
[17] = Mean residence time in healthy human at 1 g, iv; format: ADME, organism-based; details: in vivo
[18] = Half life in patient with severe burns at 1 g, iv; format: ADME, organism-based; details: human, in vivo

## CC(=O)OCC1=C(C(=O)O)N2C(=O)[C@@H](NC(=O)Cc3cccs3)[C@H]2SC1 [CEPHALOTHIN]
[1]
  fraction unbound: 0.41
[2]
  half-life: 44.4 min
[3]
  CL: 19.8 mL/min/kg
[4]
  half-life: 54.6 min
[5]
  half-life: 15.6 min
[6]
  MRT: 35.4 min
[7]
  fraction unbound: 0.29
[8]
  Vd: 0.6 L/kg
[9]
  CL renal: 98 mL/min
[10]
  Cmax: 21300 ng/mL
[11]
  AUC: 12000 ng·h/mL
[12]
  AUC: 9890 ng·h/mL
[13]
  Vd: 0.63 L/kg
[14]
  CL renal: 148 mL/min
[15]
  Cmax: 38700 ng/mL
[16]
  CL: 26.3 mL/min/kg
[17]
  MRT: 22.8 min
[18]
  half-life: 24.6 min
